Literature values as cited in patent publication US20170312269A1, “COMPOSITIONS AND METHODS FOR REDUCING FOOD CRAVINGS” (OREXIGEN THERAPEUTICS, INC., priority 2005, published 2017).

Details: in vivo; cited from earlier work

CNCCC(Oc1ccc(C(F)(F)F)cc1)c1ccccc1 (stereo not shown) [fluoxetine]
physiological half life: about 9 hours
